The text below walks through data of PMC3914206.

Assay type in all cases: binding
Common to all, as to details: Compound Concentration 10 µM

Experiment [1] deals with T1, panel of 442 kinases (Homo sapiens, UniProt O43293).
T1 construct: purchased KINOMEscan
From the text: (§1) We assessed the selectivity of members of this scaffold using the KINOMEscan methodology across a near comprehensive panel of 442 kinases [[18,27]].

Experiment [2] has as its target T2, panel of 442 kinases (Homo sapiens, UniProt Q9NYY3).
T2 construct: purchased KINOMEscan
Description: as §1

Experiment [3] addresses T3, panel of 442 kinases (Homo sapiens, UniProt Q9BUB5).
T3 construct: purchased KINOMEscan
Description: as §1

In experiment [4] the target is T4, panel of 442 kinases (Homo sapiens, UniProt P04049).
T4 construct: purchased KINOMEscan
T4 sequence (P04049 whole entry): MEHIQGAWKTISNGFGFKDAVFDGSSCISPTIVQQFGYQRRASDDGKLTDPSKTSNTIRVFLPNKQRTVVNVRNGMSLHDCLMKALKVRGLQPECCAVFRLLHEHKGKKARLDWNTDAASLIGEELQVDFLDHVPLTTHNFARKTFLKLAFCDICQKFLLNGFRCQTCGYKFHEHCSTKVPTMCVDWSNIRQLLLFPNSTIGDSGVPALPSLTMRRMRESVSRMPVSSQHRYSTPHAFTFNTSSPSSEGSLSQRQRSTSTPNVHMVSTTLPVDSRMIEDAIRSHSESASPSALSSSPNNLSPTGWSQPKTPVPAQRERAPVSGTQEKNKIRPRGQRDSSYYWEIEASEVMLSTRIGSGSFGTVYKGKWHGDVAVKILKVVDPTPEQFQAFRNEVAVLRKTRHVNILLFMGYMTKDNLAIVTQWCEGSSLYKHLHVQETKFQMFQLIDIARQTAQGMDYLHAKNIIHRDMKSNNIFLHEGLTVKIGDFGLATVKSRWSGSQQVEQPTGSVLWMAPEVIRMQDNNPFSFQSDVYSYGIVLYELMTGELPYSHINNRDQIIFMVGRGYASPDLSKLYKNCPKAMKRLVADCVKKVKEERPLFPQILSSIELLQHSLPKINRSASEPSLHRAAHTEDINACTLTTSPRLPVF
Description: as §1

T3 sequence (Q9BUB5 whole entry): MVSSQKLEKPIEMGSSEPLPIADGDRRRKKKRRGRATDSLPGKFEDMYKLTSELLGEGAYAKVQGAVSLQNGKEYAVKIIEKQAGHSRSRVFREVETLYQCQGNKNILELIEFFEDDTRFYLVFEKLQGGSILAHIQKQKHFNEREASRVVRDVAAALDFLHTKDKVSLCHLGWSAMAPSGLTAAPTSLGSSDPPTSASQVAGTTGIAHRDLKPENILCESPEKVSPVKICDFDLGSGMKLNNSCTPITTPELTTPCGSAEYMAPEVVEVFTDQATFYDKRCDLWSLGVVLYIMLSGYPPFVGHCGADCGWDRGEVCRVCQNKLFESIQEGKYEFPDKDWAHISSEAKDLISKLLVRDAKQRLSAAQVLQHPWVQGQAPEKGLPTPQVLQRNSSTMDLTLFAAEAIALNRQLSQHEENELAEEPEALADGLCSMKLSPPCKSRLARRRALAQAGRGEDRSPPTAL
T2 sequence (Q9NYY3 whole entry): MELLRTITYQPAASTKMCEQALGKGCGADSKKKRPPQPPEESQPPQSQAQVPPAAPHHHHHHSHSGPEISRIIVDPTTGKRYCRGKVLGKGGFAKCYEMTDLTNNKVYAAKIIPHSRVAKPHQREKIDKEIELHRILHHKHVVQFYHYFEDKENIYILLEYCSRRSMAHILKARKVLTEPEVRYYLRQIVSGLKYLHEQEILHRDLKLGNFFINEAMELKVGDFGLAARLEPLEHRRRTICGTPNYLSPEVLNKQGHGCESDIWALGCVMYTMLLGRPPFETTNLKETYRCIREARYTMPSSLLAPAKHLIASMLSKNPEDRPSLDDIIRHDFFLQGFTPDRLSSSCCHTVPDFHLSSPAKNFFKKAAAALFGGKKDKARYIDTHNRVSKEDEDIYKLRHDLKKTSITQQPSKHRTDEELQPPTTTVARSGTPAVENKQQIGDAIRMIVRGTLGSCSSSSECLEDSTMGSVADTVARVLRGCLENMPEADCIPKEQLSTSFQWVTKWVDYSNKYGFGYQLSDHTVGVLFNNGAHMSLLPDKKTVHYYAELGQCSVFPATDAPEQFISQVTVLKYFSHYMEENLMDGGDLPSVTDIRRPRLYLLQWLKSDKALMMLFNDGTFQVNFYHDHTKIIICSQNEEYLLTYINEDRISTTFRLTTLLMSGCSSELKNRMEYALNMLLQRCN
T1 sequence (O43293 whole entry): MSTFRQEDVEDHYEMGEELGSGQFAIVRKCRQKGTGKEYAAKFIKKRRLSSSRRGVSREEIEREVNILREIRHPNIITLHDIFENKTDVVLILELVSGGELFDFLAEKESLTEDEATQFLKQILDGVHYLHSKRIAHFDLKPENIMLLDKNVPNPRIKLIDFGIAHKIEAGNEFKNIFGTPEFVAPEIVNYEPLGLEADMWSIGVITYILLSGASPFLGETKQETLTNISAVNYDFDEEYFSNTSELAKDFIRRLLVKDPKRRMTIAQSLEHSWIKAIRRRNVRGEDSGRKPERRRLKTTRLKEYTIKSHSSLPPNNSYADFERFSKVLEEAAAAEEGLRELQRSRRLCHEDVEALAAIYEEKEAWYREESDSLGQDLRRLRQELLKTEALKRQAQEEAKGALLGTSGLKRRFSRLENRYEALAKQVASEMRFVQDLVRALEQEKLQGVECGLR

Regarding `CCOc1cc(C(=O)N2CCC(N3CCN(C)CC3)CC2)ccc1Nc1ncc2c(n1)N(C1CCCC1)c1ccccc1C(=O)N2C` [Compound 26], the “KINOMEscan: DAPK3” value on panel of 442 kinases [1] was 100. The “KINOMEscan: PLK2” value on panel of 442 kinases [2] is 97. In addition, at panel of 442 kinases [3], the “KINOMEscan: MKNK1” value came to 96. Besides, the “KINOMEscan: RAF1” value at panel of 442 kinases [4] is recorded as 100.
Take `COc1cc(C(=O)N2CCC(N3CCN(C)CC3)CC2)ccc1Nc1ncc2c(n1)N1CCc3cccc(c31)C(=O)N2C` [Compound 24]: at panel of 442 kinases [2], the “KINOMEscan: PLK2” value stood at 8.8.
Take `COc1cc(C(=O)N2CCC(N3CCN(C)CC3)CC2)ccc1Nc1ncc2c(n1)N(C)c1ccccc1C(=O)N2C` [15 (LRRK2-IN-1)]: at panel of 442 kinases [1], the “KINOMEscan: DAPK3” value is reported as 67. The “KINOMEscan: PLK2” value on panel of 442 kinases [2] came to 100. Besides, the “KINOMEscan: MKNK1” value on panel of 442 kinases [3] was found to be 50. In addition, on panel of 442 kinases [4], the “KINOMEscan: RAF1” value was found to be 100.
`COc1cc(C(=O)N2CCC(N3CCN(C)CC3)CC2)ccc1Nc1ncc2c(n1)N(C1CCCC1)c1ccccc1C(=O)N2C` [Compound 25, 11-cyclopentyl-2-((2-methoxy-4-(4-(4-methylpiperazin-1-yl)piperidine-1-carbonyl)phenyl)amino)-5-methyl-5H-benzo[e]pyrimido[5,4-b][1,4]diazepin-6(11H)-one]: the “KINOMEscan: DAPK3” value at panel of 442 kinases [1] stood at 86. Besides, the “KINOMEscan: PLK2” value on panel of 442 kinases [2] is on record as 100. Also, the “KINOMEscan: MKNK1” value at panel of 442 kinases [3] worked out at 100. The “KINOMEscan: RAF1” value at panel of 442 kinases [4] is recorded as 100.
